biological target: human PD-L1 (Homo sapiens (Human), UniProt Q9NZQ7); assay: Enzyme-Linked Immunosorbent Assay (ELISA), PD-1/PD-L1 binding; conditions: PD-1/PD-L1 ELISA, human PD-L1 coated plates, Table 1
Description: 96 Well plates were coated with […] of human PD-L1 (obtained from R&D) in PBS overnight at 4° C. The wells were then blocked with 2% BSA in PBS (W/V) with 0.05% TWEEN-20 for 1 hour at 37° C. The plates were washed 3 times with PBS/0.05% TWEEN-20 and the compounds were serial diluted (1:5) in dilution medium and added to the ELISA plates. Human PD-1 […] 0.31 μg/mL (ACRO Biosystems) were added and incubated for 1 hour at 37° C. then washed 3 times with PBS/0.05% TWEEN-20. A second block was performed with 2% BSA in PBS (W/V)/0.05% TWEEN-20 for 10 min at 37° C. and the plates were washed 3 times with PBS/0.05% TWEEN-20. Streptavidin-HRP was added for 1 hour at 37° C. then the plates were washed 3 times with PBS/0.05% TWEEN-20. TMB substrate was added and reacted for 20 min at 37° C. A stop solution (2 N aqueous H2SO4) was added. The absorbance was read at 450 nm using a micro-plate spectrophotometer.
Using the methods described in the Examples above, the compounds in Table 2 were prepared & tested for biological activity using the ELISA method described above.

Chain of human PD-L1 (Q9NZQ7 19-239): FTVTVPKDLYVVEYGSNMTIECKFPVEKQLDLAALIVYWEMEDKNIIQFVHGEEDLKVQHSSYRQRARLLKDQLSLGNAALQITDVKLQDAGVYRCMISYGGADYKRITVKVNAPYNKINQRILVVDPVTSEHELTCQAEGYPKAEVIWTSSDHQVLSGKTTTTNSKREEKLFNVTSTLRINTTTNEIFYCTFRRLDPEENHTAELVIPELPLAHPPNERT

Compared with `COc1cc(-c2cccc(-c3cccc(Nc4nccc5nccnc45)c3C)c2C)cc(F)c1CNCC(N)=O` [Example 1.239], `COc1cc(-c2cccc(-c3cccc(Nc4cncc5nccnc45)c3C)c2C)cc(F)c1CN1CC(C(=O)O)C1` [Example 1.253] is lower in IC50: 10 to 1000 nM for the first, under 10 nM for the second.

`COc1cc(-c2cccc(-c3cccc(NC(=O)C4CCCCO4)c3C)c2C)cc(F)c1CN` (stereo not drawn) [Example 1.363] and `COc1cc(-c2cccc(-c3cccc(NC(=O)C4CNCCO4)c3C)c2C)cc(F)c1CN` (stereo not drawn) [Example 1.323] fall in the same range of IC50: 10 to 1000 nM for the first, 10 to 1000 nM for the second.

`COc1cc(-c2cccc(-c3cccc(NC(=O)c4c[nH]c(=O)n(C)c4=O)c3C)c2C)cc(F)c1CN[C@@H]1CCCC[C@@H]1O` [Example 1.217] and `COc1cc(-c2cccc(-c3cccc(NC(=O)c4cncn(C)c4=O)c3C)c2C)cc(F)c1CN[C@H]1CCC(=O)NC1` [Example 1.255] cannot be ordered by IC50: under 10 nM for the first, under 10 nM for the second.

First: COc1cc(-c2cccc(-c3cccc(NC(=O)c4ncc(C)cn4)c3C)c2C)cc(F)c1CN1CC(C(=O)O)C1 [Example 1.364]
Second: COc1cc(-c2cccc(-c3cccc(NC(=O)c4ccnc(C)n4)c3C)c2C)cc(F)c1CN1CC(C(=O)O)C1 [Example 1.321]
The IC50 of the first is higher: 10 to 1000 nM for the first, under 10 nM for the second.

`COc1cc(-c2cccc(-c3cccc(NC(=O)c4cncn(C)c4=O)c3C)c2C)cc(F)c1CNCCO` [Example 1.221] and `COc1cc(-c2cccc(-c3cccc(NC(=O)c4cncn(C)c4=O)c3C)c2C)cc(F)c1CNCC(C)(C)O` [Example 1.205] cannot be ordered by IC50: under 10 nM for the first, under 10 nM for the second.

First: COc1cc(-c2cccc(-c3cccc(Nc4nccc5c4C(=O)N(C)CC5)c3C)c2C)cc(F)c1CN1CC(C(=O)OC(C)C)C1 [Example 1.219]
Second: COc1cc(-c2cccc(-c3cccc(Nc4nccc5ccn(C)c(=O)c45)c3C)c2C)cc(F)c1CN1CC(C(=O)O)C1 [Example 1.278]
The IC50 of the first is higher: 10 to 1000 nM for the first, under 10 nM for the second. The second is the more potent here.

`COc1cc(-c2cccc(-c3cccc(NC(=O)c4cc(N)ncn4)c3C)c2C)cc(F)c1CN1CC(C(=O)O)C1` [Example 1.320] and `COc1cc(-c2cccc(-c3cccc(NC(=O)c4cnc(C(=O)O)cn4)c3C)c2C)cc(F)c1CN` [Example 1.322] cannot be ordered by IC50: under 10 nM for the first, under 10 nM for the second.

`COc1cc(-c2cccc(-c3cccc(NC(=O)c4cncn(C)c4=O)c3C)c2C)cc(F)c1CN[C@@H]1CNC(=O)C1` [Example 1.209] and `COc1cc(-c2cccc(-c3cccc(NC(=O)c4cncn(C)c4=O)c3C)c2C)cc(F)c1CN1CCC2(C1)NC(=O)NC2=O` (stereo not drawn) [Example 1.269] cannot be ordered by IC50: under 10 nM for the first, under 10 nM for the second.

Compound `COc1cc(-c2cccc(-c3cccc(NC(=O)c4ccccn4)c3)c2C)cc(F)c1CN1CC(C(=O)O)C1` [Example 1.375] has an IC50 of 10 to 1000 nM.

same assay, conditions: human PD-1/PD-L1 ELISA, plates coated with human PD-L1

`COc1cc(-c2cccc(-c3cccc(Nc4nccc5nccnc45)c3C)c2C)cc(F)c1CN[C@@H]1CCNC1=O` [Example 1.130] and `COc1cc(-c2cccc(-c3cccc(Nc4nccc5nccnc45)c3C)c2C)cc(F)c1CNCc1ccn[nH]1` [Example 1.116] fall in the same range of IC50: 10 to 1000 nM for the first, 10 to 1000 nM for the second.

`COc1cc(-c2cccc(-c3cccc(Nc4cncc5nccnc45)c3C)c2C)cc(F)c1CN[C@@H]1CCOC[C@@H]1O` [Example 1.041] and `COc1cc(-c2cccc(-c3cccc(Nc4cncc5nccnc45)c3C)c2C)cc(F)c1CN[C@H]1CCC(=O)NC1` [Example 1.042] cannot be ordered by IC50: under 10 nM for the first, under 10 nM for the second.

First: COc1cc(-c2cccc(-c3cccc(NC(=O)c4cn(C)c(=O)n(C)c4=O)c3C)c2C)cc(F)c1CN(C)C[C@H]1CCC(=O)N1 [Example 1.152]
Second: COc1cc(-c2cccc(-c3cccc(NC(=O)c4cn(C)c(=O)n(C)c4=O)c3C)c2Cl)cc(F)c1CNC[C@@H]1CCC(=O)N1 [Example 1.036]
The IC50 of the first is higher: 10 to 1000 nM for the first, under 10 nM for the second.

`COc1cc(-c2cccc(-c3cccc(NC(=O)c4nn(C)c(=O)n(C)c4=O)c3C)c2C)cc(F)c1CNC1CCNC(=O)C1` (stereo not drawn) [Example 1.055] and `COc1cc(-c2cccc(-c3cccc(NC(=O)c4cn(C)c(=O)n(C)c4=O)c3C)c2C)cc(F)c1CNC1CCNC(=O)C1` (stereo not drawn) [Example 1.093] cannot be ordered by IC50: under 10 nM for the first, under 10 nM for the second.

`COc1cc(-c2cccc(-c3cccc(NC(=O)c4nn(C)c(=O)n(C)c4=O)c3C)c2C)cc(F)c1CNCc1c[nH]c(=O)[nH]c1=O` [Example 1.054] and `COc1cc(-c2cccc(-c3cccc(NC(=O)c4cn(C)c(=O)n(C)c4=O)c3C)c2C)cc(F)c1CNCc1c[nH]c(=O)[nH]c1=O` [Example 1.149] cannot be ordered by IC50: under 10 nM for the first, under 10 nM for the second.

`COc1cc(-c2cccc(-c3cccc(NC(=O)c4c[nH]c(=O)n(C)c4=O)c3C)c2C)cc(F)c1CNCc1ccn[nH]1` [Example 1.134] and `COc1cc(-c2cccc(-c3cccc(NC(=O)c4cn(C)c(=O)n(C)c4=O)c3C)c2C)cc(F)c1CNCCCC(N)=O` [Example 1.081] cannot be ordered by IC50: under 10 nM for the first, under 10 nM for the second.

`COc1cc(-c2cccc(-c3cccc(NC(=O)c4ccc(CNCCO)cn4)c3C)c2C)cc(F)c1CNCCS(=O)(=O)O` [Example 1.399] and `COc1cc(-c2cccc(-c3cccc(NC(=O)c4cncn(C)c4=O)c3C)c2C)cc(F)c1CN[C@@H]1CCOC[C@@H]1O` [Example 1.066] cannot be ordered by IC50: under 10 nM for the first, under 10 nM for the second.

Work on `COc1cc(-c2cccc(-c3cccc(NC(=O)c4cncn(C)c4=O)c3C)c2C)cc(F)c1CNC1CCOCC1` [Example 1.087] yielded an IC50 of under 10 nM.

same assay, conditions: plate-coated human PD-L1, biotinylated Human PD-1, absorbance at 450 nm

`COc1cc(-c2cccc(-c3cccc(NC(=O)c4cn(C)c(=O)n(C)c4=O)c3C)c2Cl)cc(F)c1CN(C)C1CCOCC1` [Example 2.069] and `COc1cc(-c2cccc(-c3cccc(NC(=O)c4cn(C)c(=O)n(C)c4=O)c3C)c2Cl)cc(F)c1CN(C)CCO` [Example 2.058] cannot be ordered by IC50: under 10 nM for the first, under 10 nM for the second.

`COc1cc(-c2cccc(-c3cccc(NC(=O)c4cn(C)c(=O)n(C)c4=O)c3C)c2Cl)cc(F)c1CN1CC2(CCNC2=O)C1` [Example 2.012] and `COc1cc(-c2cccc(-c3cccc(NC(=O)c4cn(C)c(=O)n(C)c4=O)c3C)c2Cl)cc(F)c1CN1CC[C@@H](C(=O)O)C1` [Example 2.021] cannot be ordered by IC50: under 10 nM for the first, under 10 nM for the second.

First: CCOc1cc(-c2cccc(-c3cccc(NC(=O)c4cn(C)c(=O)n(C)c4=O)c3C)c2Cl)cc(F)c1CN[C@H]1CCC(=O)NC1 [Example 2.038]
Second: COc1cc(-c2cccc(-c3cccc(NC(=O)c4c[nH]c(=O)n(C)c4=O)c3C)c2Cl)cc(F)c1CN[C@@H]1CNC(=O)C1 [Example 2.033]
The IC50 of the first is higher: 10 to 1000 nM for the first, under 10 nM for the second. The second is the more potent here.

`COc1cc(-c2cccc(-c3cccc(NC(=O)c4cn(C)c(=O)n(C)c4=O)c3Cl)c2Cl)cc(F)c1CN[C@H]1COC[C@H]1O` [Example 2.074] and `COc1cc(-c2cccc(-c3cccc(NC(=O)c4cn(C)c(=O)n(C)c4=O)c3Cl)c2Cl)cc(F)c1CNC(C)C` [Example 2.063] cannot be ordered by IC50: under 10 nM for the first, under 10 nM for the second.

`COc1cc(-c2cccc(-c3cccc(NC(=O)c4cn(C)c(=O)n(C)c4=O)c3Cl)c2F)cc(F)c1CNC[C@@H]1CCC(=O)N1` [Example 2.079] and `COc1cc(-c2cccc(-c3cccc(NC(=O)c4cn(C)c(=O)n(C)c4=O)c3C)c2F)cc(F)c1CN[C@H]1CCOC[C@H]1O` [Example 2.105] cannot be ordered by IC50: under 10 nM for the first, under 10 nM for the second.

`COc1cc(-c2cccc(-c3cccc(NC(=O)c4cn(C)c(=O)n(C)c4=O)c3C)c2Cl)cnc1CN[C@@H]1CCOC[C@@H]1O` [Example 2.049] and `COc1cc(-c2cccc(-c3cccc(NC(=O)c4cn(C)c(=O)n(C)c4=O)c3C)c2F)cc(F)c1CN[C@@H]1CCOC[C@H]1O` [Example 2.099] cannot be ordered by IC50: under 10 nM for the first, under 10 nM for the second.

In the case of `COc1cc(-c2cccc(-c3cccc(NC(=O)c4c[nH]c(=O)n(C)c4=O)c3Cl)c2Cl)cc(F)c1CN[C@H]1CCC(=O)NC1` [Example 2.027], the IC50 is reported as under 10 nM.

From patent US11266643B2, “Triaryl compounds for treatment of PD-L1 diseases” (CHEMOCENTRYX, INC., priority 2019, dated 2022)
